{"source": "paper PMC5339874", "about": "“Fluorene-9-bisphenol is anti-oestrogenic and may cause adverse pregnancy outcomes in mice” (Nature Communications, 2017)", "key": {"[1]": {"system": "rats and mice", "parameters": "method as in PMID 21438738, PMID 12075117, PMID 18445619", "conditions": "cited from earlier work"}, "[2]": {"system": "oestrogen receptor α", "parameters": "method as in PMID 22927406", "conditions": "in the presence of E2; cited from earlier work"}, "[3]": {"system": "intact female BALB/c mice", "parameters": "method as in PMID 9359486", "conditions": "28 days of oral administration, intact female BALB/c mice ∼50 days old; cited from earlier work"}, "[4]": {"system": "female CD-1 mice", "assay": "Improved anti-uterotrophic assay, daily oral gavage for 10 days beginning on PND 24", "type": "in vivo", "conditions": "daily oral gavage for 10 days", "experimental": "The animals were fed ad libitum with a basic diet from the Laboratory Animal Center of the Academy of Military Medical Sciences (Beijing, China), and drinking water was provided ad libitum. […] The volume of vehicle or chemical solutions administered was adjusted daily based on body weight measured during the dosing period according to the volume-body weight ratio of 5 ml kg^−1 bw."}, "[5]": {"system": "female CD-1 mice", "assay": "Exposure experiment through drinking water", "type": "in vivo", "conditions": "10-day exposure via drinking water", "experimental": "Mice with a maximal difference in body weight of 1 g were selected for the experiments and randomly assigned to either the treatment or control groups. […] The animals were fed ad libitum an oestrogen-free diet from Trophic Animal Feed High-tech Co., Ltd. (Nantong, China), and drinking water was provided ad libitum in glass bottles. Before the experiments, the mice were randomly assigned to five groups (n=8). Ultra-pure water was used as a control. FULV was dissolved in ultra-pure water to a concentration of 100 ng l^−1 and used as a positive control. […] Two plastic drinking bottles labelled ‘BPA-free', of different brands, were purchased and denoted Bottle A and Bottle B. The plastic bottles were filled with boiling ultra-pure water from a stainless steel electric water heater and allowed to cool down to room temperature before the animal experiment. The BHPF levels in the cooled boiled waters from Bottle A, Bottle B and the stainless steel electric water heater were determined by GC–MS. No BHPF was detected in the cooled boiled water from the stainless steel electric water heater. The cooled boiled waters from Bottle A and Bottle B were transferred to glass bottles during the experiment. The exposure experiment was performed for 10 days beginning on PND 24. After the period of exposure, the mice were weighed and killed in turns for each group, whereby in each turn only one mouse in a group was killed. Blood was collected by cardiac puncture soon after each animal was killed, and the uteri were removed, blotted and weighed by one experimenter to reduce the risk of bias in the data collection and immediately frozen in liquid nitrogen for gene expression analysis. The relative uterine weight was calculated to evaluate the anti-uterotrophic activity. […] The serum BHPF levels were analysed by GC–MS using the same method as that for human serum. The gene expressions of sprr2a and sprr2b in the uteri were determined by Q-RT-PCR."}, "[6]": {"system": "rats", "parameters": "method as in PMID 8773425", "conditions": "oral, before implantation on day 2 of pregnancy; cited from earlier work"}, "[7]": {"system": "CD-1 mice", "assay": "Subchronic and reproductive toxicity tests", "conditions": "mouse, in vivo", "experimental": "Immature CD-1 mice (20 days old) were obtained from Experimental Animal Tech Co. of Weitonglihua (Beijing, China) and acclimatized in an experimental environment with a temperature of 22 °C±2 °C, relative humidity between 40 and 60%, and artificial lighting in a 12 h/12 h light-dark cycle. The animals were fed ad libitum with a basic diet from the Laboratory Animal Center of the Academy of Military Medical Sciences (Beijing, China), and drinking water was provided ad libitum. […] The animals were housed five to a cage until the pairing date. The treatment via oral gavage of each mouse was performed once every 3 days beginning on PND 24. The chemicals were dissolved in peanut oil to the appropriate concentrations. The volume of vehicle or chemical solutions administered was adjusted daily based on body weight measured during the dosing period according to the volume-body weight ratio of 5 ml kg^−1 bw. On PND 60, 10 females of each group were weighed and killed by cervical dislocation. The uteri, ovaries, livers, kidneys and spleens were weighed and collected for histological analysis. At the age of PND 77, males and females were paired. Each morning, the females were examined for the presence of vaginal plugs. Gestational day 1 was defined as the day on which a vaginal plug was found. In cases where pairing was unsuccessful, females were re-mated with proven males of the same group, except that females in the 1.2 mg kg^−1 TAM group were re-mated with proven males of the control group. After a 7-day mating period, the males were weighed and killed, and organs were weighed and collected for further analysis. Cauda epididymal sperm was collected from each mouse and observed under a trinocular microscope (Olympus BX53) in physiological saline. A microscopic video was recorded and analysed for sperm quality evaluation. The treatment via oral gavage was continued for the females until day 19 of pregnancy. On post-partum days 0 and 4, the weights of the dams and pups were recorded and the pups were checked for abnormalities. On post-partum day 4, the dams were weighed and killed, and their organs were weighed and collected for further analysis. The ovaries and uteri were examined for the numbers of corpora lutea and implantation sites, respectively. Finally, the non-pregnant and nulliparous females were killed for histopathological analysis. For histological examination, organs and tissues were fixed in formalin fixation, embedded in paraffin, and sectioned serially at 5 μm. Slides were stained with hematoxylin and eosin (H&E), and observed under a light microscope (Olympus BX53)."}}, "data": [{"smiles": "CC(C)(c1ccc(O)cc1)c1ccc(O)cc1", "note": "[BPA, bisphenol A]", "values": [{"measurement": "reproductive/developmental NOAEL", "setting": "[1]", "result": 50, "unit": "mg kg^−1 bw day^−1"}, {"measurement": "systemic no-observed-adverse-effect level (NOAEL)", "setting": "[1]", "result": 5, "unit": "mg kg^−1 bw day^−1"}]}, {"smiles": "Cc1cc(C(C)(C)c2ccc(O)c(C)c2)ccc1O", "note": "[BPC, bisphenol C]", "values": [{"measurement": "antagonistic activity", "setting": "[2]", "result": "almost full antagonistic activity"}]}, {"smiles": "CC1=C(c2ccc(OC(=O)C(C)(C)C)cc2)[C@H](c2ccc(OCCN3CCCCC3)cc2)Oc2cc(OC(=O)C(C)(C)C)ccc21", "note": "[EM-800]", "values": [{"measurement": "effect on uterus", "setting": "[3]", "result": "reduce uterine weights and cause atrophy of the endometrium"}]}, {"smiles": "C[C@]12CC[C@@H]3c4ccc(O)cc4C[C@@H](CCCCCCCCC[S+]([O-])CCCC(F)(F)C(F)(F)F)[C@H]3[C@@H]1CC[C@@H]2O", "note": "(stereo partly shown) [FULV, fulvestrant]", "values": [{"measurement": "relative uterine weights", "setting": "[4]", "result": "decreased in a dose-dependent manner"}, {"measurement": "relative uterine weight, % that of the control", "setting": "[5]; 100 ng l^−1 BHPF or FULV, Bottle A 124.35, Bottle B 23.81 ng l^−1 BHPF, P>0.05", "result": "77.89%±37.50"}, {"measurement": "expression of sprr2a in the uteri (Q-RT-PCR)", "setting": "[5]; no statistically significant difference (P>0.05)", "result": "decreased"}, {"measurement": "expression of sprr2b in the uteri (Q-RT-PCR)", "setting": "[5]; vs control", "result": "significantly lower"}]}, {"smiles": "CN(C)CCOc1ccc([C@H]2C[C@]3(C)[C@@H](O)CC[C@H]3[C@@H]3CCc4cc(O)ccc4[C@H]32)cc1", "note": "[RU39411]", "values": [{"measurement": "reproductive effects, high doses", "setting": "[6]", "result": "prevented pregnancy in all animals"}, {"measurement": "reproductive effects, low doses", "setting": "[6]", "result": "reduced the litter sizes and weights and induced embryonic absorption in some animals"}]}, {"smiles": "CC/C(=C(\\c1ccccc1)c1ccc(OCCN(C)C)cc1)c1ccccc1", "note": "[TAM, tamoxifen, reference compound]", "values": [{"measurement": "reproductive effects, high doses", "setting": "[6]", "result": "prevented pregnancy in all animals"}, {"measurement": "reproductive effects, low doses", "setting": "[6]", "result": "reduced the litter sizes and weights and induced embryonic absorption in some animals"}, {"measurement": "analysis of ovary sections", "setting": "[7]", "result": "retarded follicular development and reduced the numbers of corpora lutea"}, {"measurement": "histopathological examination of ovaries", "setting": "[7]", "result": "haemorrhagic ovary cysts occurred"}, {"measurement": "histopathological examination of uteri", "setting": "[7]", "result": "serious atrophic endometria"}, {"measurement": "sperm quality", "setting": "[7]", "result": "No obvious adverse effects"}]}]}
